Test results from US20210145802A1, “THERAPY FOR OPHTHALMOLOGICAL CONDITIONS” (WREN THERAPEUTICS LIMITED, priority 2018, published 2021).

What was measured:
Aβ42 [1] = target: T1, Aβ42 (Homo sapiens, UniProt P05067); assay: Seeded Aβ42 aggregation kinetics (2% or 50% preformed fibril seeds); type: biochemical; details: 2 μM Aβ42
T1 construct: […]; made in house; host or cells: E. coli BL21 Gold (DE3)
Experimental: For the seeded experiments, preformed fibrils were prepared just prior to the experiment. Kinetic experiments were set up as described above for 5 μM Aβ42 samples in 20 mM sodium phosphate buffer, pH 8 with 200 μM EDTA, 0.02% NaN3 and 20 μM ThT. The ThT fluorescence was monitored for 3 hours to verify the formation of fibrils. Samples were then collected from the wells into low-binding tubes. Under the considered conditions (i.e. 5 μM Aβ42), the monomer concentration is negligible at equilibrium. The final concentration of fibrils, in monomer equivalents, was considered equal to the initial concentration of monomer. Fibrils were then added to freshly prepared monomer in order to reach either 2% or 50% final concentration of seeds in the absence or the presence of Netoglitazone.
Inhibitors can interfere with the aggregation process by inhibiting one or more of the individual microscopic steps. We can identify the microscopic events that are inhibited by the chemical compounds by fitting the integrated rate law (Eq. (54) in Cohen et al., J Chem Phys 135, 065106) to the macroscopic aggregation profiles and comparing the fitted set of microscopic rate constants (k+k2 and k+kn in the absence of pre-formed seeds; k+ and k2 in the presence of pre-formed seeds where primary nucleation is bypassed) required to describe the time evolution of the fibril formation in the absence and presence of Netoglitazone. The analysis is analogous to that carried out in Habchi et al., Proc Natl Acad Sci USA; 114(2):E200-E208, 2017 to study the effects of other small molecules on Aβ42 aggregation.

Aβ42 oligomers = target: T2, Aβ42 oligomers (Homo sapiens, UniProt P05067); assay: ELISA with oligomer-specific antibody; type: biochemical; details: 5 μM Aβ42; 5-fold excess; at half-time of aggregation of Aβ42 alone
T2 construct: […]; made in house; host or cells: E. coli BL21 Gold (DE3)
Experimental: 20 μl Aliquots were taken at the t50 (i.e. half-time) from aggregation reactions of 5 μM Aβ42 in the absence and in the presence of 5-fold excess of Netoglitazone. Samples were then immobilised on a 96-well Maxisorp ELISA plate (Nunc, Roskilde, Denmark) with no shaking for 1 h at room temperature. The plate was then washed three times with 20 mM Tris pH 7.4, 100 mM NaCl and incubated in 20 mM Tris pH 7.4, 100 mM NaCl, 5% BSA under constant shaking overnight at 4° C. The day after the plate was washed six times with 20 mM Tris pH 7.4, 100 mM NaCl and then incubated with 30 μl solutions of 5 μM oligomer-specific antibody under constant shaking either for 1 hour or overnight at room temperature. At the end of this incubation, the plate was washed six times with 20 mM Tris pH 7.4, 100 mM NaCl and incubated with 30 μl solutions of Rabbit polyclonal to 6× His Tag® HRP conjugated (Abcam, Cambridge, UK) at a dilution of 1:4000 in 20 mM Tris pH 7.4, 100 mM NaCl, 5% BSA under shaking for 1 hour at room temperature. […] Finally, the amount of bound oligomer-specific antibody was quantified by using 1-Step™ Ultra TMB-ELISA Substrate Solution (ThermoFisher Scientific, Waltham, Mass., United States), according to manufacturer instructions, and measuring the absorbance at 450 nm by means of a CLARIOstar plate reader (BMG Labtech, Aylesbury, UK).

[2] = system: CL2355 (Aβ1-42Neur worms); assay: Chemotaxis assay, Aβ1-42Neur worms; type: in vivo, C. elegans; details: 5 μM; 5 days at 24° C.; day 6 of adulthood; compared to untreated worms
Experimental: Chemotaxis measurements were carried out as previously described (O. Margie, C. Palmer, I. Chin-Sang, C. elegans Chemotaxis Assay. J Vis Exp, e50069 (2013)) and as illustrated in FIG. 6C. Briefly, adult synchronized transgenic C. elegans CL2355 worms and wild-type healthy worms were incubated with or without 5 μM Netoglitazone for 5 days 24° C. At day 6 of adulthood the worms were then collected, washed with M9 buffer three times, and assayed in 9 cm screening plates (1.9% agar, 1 mM CaCl2, 1 mM MgSO4, and 25 mM phosphate buffer, pH 6.0) seeded with 50 μl of a 10× culture of Op50 Bacteria or sterile water, as attractant or test conditions, respectively and in combination with 1 μl of 1M Levamisole. Ca. 200 worms were placed in the central quadrant of the plate and incubated at 24° C. for 8 h, after which the chemotaxis index (CI) was scored. The CI was defined as follows (O. Margie et al (2013)):
(number of worms at the attractant locations−number of worms at the control locations)/total number of worms on the plate
Worms that were remaining in the central quadrant were excluded.

Aβ42 [3] = target: T1, Aβ42; assay: Chemical kinetics analysis of Aβ42 aggregation profiles (rate constants); type: biochemical; details: 2 μM Aβ42; increasing compound concentrations
Text: The time evolution of the total fibril mass concentration is described as a function only of the initial conditions and the rate constants of the system by the integrated rate law given by Eq. (54) in Cohen et al., J Chem Phys 135, 065106, 2011.
These are related to the rate of formation of new aggregates through primary pathways λ=√{square root over (2k+knm(0)^n^c)} and through secondary pathways κ=√{square root over (2k+k2m(0)^n^2^+1)}, where the initial concentration of soluble monomers is denoted by m(0), nc and n2 describe the dependencies of the primary and secondary pathways on the monomer concentration (nc=n2=2 for Aβ42), and kn, k+ and k2 are the rate constants of the primary nucleation, elongation and secondary nucleation, respectively (Cohen et al., Proc Natl Acad Sci USA, 110(24), 9758-63, 2013). […]
A quantitative analysis was carried out on the effects of the molecules by matching the experimental aggregation profiles to kinetic curves calculated using the rate laws derived from a master equation that relates the time evolution of fibril formation to the rate constants of the different microscopic events. In this approach, the aggregation profiles in the presence of an inhibitor are described by introducing into the rate laws suitable perturbations to each of the microscopic rate constants evaluated in the absence of the inhibitor. […]

T1 sequence (P05067 671-713): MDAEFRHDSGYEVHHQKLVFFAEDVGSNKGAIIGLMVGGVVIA
T2 sequence (P05067 671-713): as above

Which results are given for `O=C1NC(=O)C(Cc2ccc3cc(OCc4ccccc4F)ccc3c2)S1` (stereo not drawn) [Netoglitazone]?
decrease of rate constant of surface-catalyzed secondary nucleation (k2) (Aβ42 [1]; 2% seeds, 20-fold excess): about 80%; inhibition of secondary pathways (k2k+) with 2% preformed seeds (Aβ42 [1]; 2% seeds, range of concentrations): concentration-dependent inhibition of secondary pathways; effect on aggregation kinetics with 50% preformed seeds (elongation) (Aβ42 [1]; 50% seeds, up to 20-fold excess): did not affect the aggregation kinetics; Aβ42 oligomer concentration (ELISA) (Aβ42 oligomers): significant reduction; chemotaxis index [2]: significantly improved; effect on rate constants of primary (knk+) and secondary (k2k+) pathways (Aβ42 [3]): can affect both nucleation pathways
